Results on 19 compounds are retold here after patent US11999727B2 (Tango Therapeutics, Inc., priority 2020, dated 2024).

pIC50: −log10 of the molar value. Some results are limits rather than exact numbers.

Assay [1] concerns HAP1 MTAP-deleted cell line. Nature of the assay: Viability assay, MTAP-deleted cell line. It is filed as cell-based. The following applies: Homo sapiens, HAP1, viability, HAP1 MTAP-deleted cell line; read-out: HAP1 MTAP deleted viability. The source says: Table 1 additionally indicates IC50 values in a viability assay for the MTAP-deleted cell line (column 10), indicating the effect of treatment with compound on cell survival.

Assay [2] concerns HAP1 MTAP-deleted cell line. Nature of the assay: SDMA in-cell western assay, HAP1 MTAP-deleted. In kind it is cell-based. Particulars: for pIC50: Homo sapiens, HAP1, SDMA in-cell western, HAP1 MTAP-deleted, read-out: HAP 1 MTAP deleted IC50; for MTAP intact/deleted ratio: IC50 ratio HAP1 MTAP-intact / HAP1 MTAP-deleted, SDMA in-cell western. The essentials:
(§1)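 Isogenic HAP1 pair: the MTAP-intact line expresses endogenous MTAP, and the deleted line is MTAP-null. Symmetric dimethylarginine was detected by in-cell western and IC50 values derived for each line.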

Assay [3] deals with T1, PRMT5 (Homo sapiens, UniProt O14744).
T1 construct: purchased Viva (custom protein)
Nature of the assay: PRMT5 biochemical IC50 assay with MTA as cofactor. Particulars: PRMT5, MTA as cofactor; read-out: MTA IC50.

For assay [4], the target named is T1, PRMT5. The assay is described as follows: PRMT5 biochemical IC50 assay with SAM as cofactor. The following applies: PRMT5, SAM as cofactor; read-out: SAM IC50.
Assay [5] relates to HAP1 MTAP-intact cell line. Nature of the assay: SDMA in-cell western assay, HAP1 MTAP-intact. It is filed as cell-based. The following applies: Homo sapiens, HAP1, SDMA in-cell western, HAP1 MTAP-intact; read-out: MTAP HAP1 intact IC50. The procedure, abridged:
as §1

The target in assay [6] is T1, PRMT5. Nature of the assay: PRMT5 biochemical IC50 assay with no cofactor. The following applies: PRMT5, no cofactor; read-out: No Cofactor/ rel IC50. The source says:
Table 1 indicates IC50 values (μM) against PRMT5 for exemplary compounds in the presence of SAM as cofactor, with no cofactor, and with MTA as cofactor, respectively (columns 4-6). […] Ki values can be calculated from the IC50 values as described in the Examples section. As detailed in the Examples section, for the assay performed in the presence of SAM, IC50=Ki×1.5 (Ki=IC50/1.5).

T1 sequence (O14744 whole entry): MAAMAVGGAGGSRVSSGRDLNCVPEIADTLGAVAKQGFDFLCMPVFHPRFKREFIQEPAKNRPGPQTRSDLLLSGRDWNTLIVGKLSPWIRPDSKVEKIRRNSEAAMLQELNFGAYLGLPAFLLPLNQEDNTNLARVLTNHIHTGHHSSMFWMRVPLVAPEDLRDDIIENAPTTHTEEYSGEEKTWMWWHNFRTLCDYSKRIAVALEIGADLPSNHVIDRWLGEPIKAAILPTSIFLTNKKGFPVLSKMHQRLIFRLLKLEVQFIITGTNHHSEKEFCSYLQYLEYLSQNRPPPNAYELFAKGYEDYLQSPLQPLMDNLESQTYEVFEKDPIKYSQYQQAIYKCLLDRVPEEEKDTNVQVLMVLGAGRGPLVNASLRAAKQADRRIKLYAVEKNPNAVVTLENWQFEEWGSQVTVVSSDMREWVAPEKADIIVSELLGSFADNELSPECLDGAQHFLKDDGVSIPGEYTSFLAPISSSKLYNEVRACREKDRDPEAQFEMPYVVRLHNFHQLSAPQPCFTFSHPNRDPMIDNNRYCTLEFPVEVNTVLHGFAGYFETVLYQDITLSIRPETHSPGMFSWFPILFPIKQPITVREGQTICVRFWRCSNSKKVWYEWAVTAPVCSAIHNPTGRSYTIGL
T1 sequence (Q9BQA1 whole entry partner): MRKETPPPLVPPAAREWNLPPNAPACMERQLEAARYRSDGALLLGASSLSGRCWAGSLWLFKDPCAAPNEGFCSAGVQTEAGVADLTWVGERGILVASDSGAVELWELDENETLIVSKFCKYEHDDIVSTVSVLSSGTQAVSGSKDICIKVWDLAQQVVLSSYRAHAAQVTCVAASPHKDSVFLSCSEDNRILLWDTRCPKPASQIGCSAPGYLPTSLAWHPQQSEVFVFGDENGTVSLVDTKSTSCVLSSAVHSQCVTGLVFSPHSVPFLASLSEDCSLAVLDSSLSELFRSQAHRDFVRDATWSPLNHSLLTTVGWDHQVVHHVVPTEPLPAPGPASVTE

As for `Cc1cc(NC(=O)C(=O)N2C[C@@H](C)CC[C@@H]2c2cccc(C3CCN(C)CC3)c2)cnc1N` (single isomer, unassigned) [Compound 1253], the pIC50 in assay [1] is above 6.00; in assay [2] it was above 7.00; in assay [3], above 7.30; in assay [4], above 7.30; in assay [5], 6.00 to 7.00; in assay [6], above 7.30. Also, in assay [2], the “MTAP intact/deleted ratio” value is given as “A (an IC50 ratio greater than or equal to 10 fold)”.
With `C[C@@H]1CC[C@@H](c2ccc3sc(CCN(C)C)nc3c2)N(C(=O)C(=O)Nc2cncc(C(N)=O)c2)C1` (single isomer, unassigned) [Compound 1254], the pIC50 was above 6.00 in assay [1]; above 7.00 in assay [2]; above 7.30 in assay [3]; above 7.30 in assay [4]; 6.00 to 7.00 in assay [5]; above 7.30 in assay [6]. Also, the “MTAP intact/deleted ratio” value in assay [2] is reported as “A (an IC50 ratio greater than or equal to 10 fold)”.
Consider `C[C@H]1CC[C@H](c2ccc3sc(C4CCN(C)CC4)nc3c2)N(C(=O)C(=O)Nc2cncc(C(N)=O)c2)C1` (single isomer, unassigned) [Compound 1255], for which the pIC50 was above 6.00 in assay [1]; above 7.00 in assay [2]; above 7.30 in assay [3]; 6.30 to 7.30 in assay [4]; above 7.00 in assay [5]; above 7.30 in assay [6]. For the same compound, the “MTAP intact/deleted ratio” value in assay [2] is reported as “A (an IC50 ratio greater than or equal to 10 fold)”.
Take `C[C@H]1CCC(c2ccc3sc(C4CCOCC4)nc3c2)N(C(=O)C(=O)Nc2cnc(N)c(C3CC3)c2)C1` (single isomer, unassigned) [Compound 1258]: the pIC50 in assay [1] was above 6.00; in assay [2], above 7.00; in assay [3] it was above 7.30; in assay [4], 6.30 to 7.30; in assay [5], 6.00 to 7.00; in assay [6], above 7.30. The “MTAP intact/deleted ratio” value in assay [2] is given as “A (an IC50 ratio greater than or equal to 10 fold)”.
With `CCc1cc(NC(=O)C(=O)N2C[C@@H](C)CC[C@@H]2c2ccc(N3CCN(C)[C@H](C)C3)nc2)cnc1N` (single isomer, unassigned) [Compound 1263], the pIC50 in assay [1] is above 6.00; in assay [2], above 7.00; in assay [3], above 7.30; in assay [4], 6.30 to 7.30; in assay [5], 6.00 to 7.00; in assay [6] it was below 6.30. The “MTAP intact/deleted ratio” value in assay [2] was “A (an IC50 ratio greater than or equal to 10 fold)”.
Regarding `CCc1cc(NC(=O)C(=O)N2C[C@H](C)CC[C@H]2c2ccc(N3CCC4(CCCN(C)C4)CC3)cc2)cnc1N` (single isomer, unassigned) [Compound 1269], the pIC50 in assay [1] was 5.00 to 6.00; in assay [2], 6.00 to 7.00; in assay [3], 6.30 to 7.30; in assay [4] it was below 6.30; in assay [5], below 6.00; in assay [6] it was below 6.30.
For `CCc1cc(NC(=O)C(=O)N2C[C@@H](C)CC[C@@H]2c2ccc3nn([C@@H]4CCCN(C)C4)cc3c2)cnc1N` (single isomer, unassigned) [Compound 1270], the pIC50 in assay [1] was above 6.00; in assay [2], above 7.00; in assay [3], above 7.30; in assay [4] it was 6.30 to 7.30; in assay [5], 6.00 to 7.00; in assay [6] it was 6.30 to 7.30. In addition, the “MTAP intact/deleted ratio” value in assay [2] is reported as “A (an IC50 ratio greater than or equal to 10 fold)”.
Take `CCc1cc(NC(=O)C(=O)N2C[C@@H](C)CC[C@@H]2c2ccc3nn([C@H]4CCCN(C)C4)cc3c2)cnc1N` (single isomer, unassigned) [Compound 1271]: the pIC50 in assay [1] was above 6.00; in assay [2], above 7.00; in assay [3] it was above 7.30; in assay [4] it was 6.30 to 7.30; in assay [5] it was above 7.00; in assay [6] it was above 7.30. For the same compound, the “MTAP intact/deleted ratio” value in assay [2] is “B (an IC50 ratio greater than or equal to 3 fold but lower than 10 fold)”.
Turning to `CCc1cc(NC(=O)C(=O)N2C[C@@H](C)CC[C@@H]2c2cccc(C[C@H]3CCCCN3C)c2)cnc1N` (single isomer, unassigned) [Compound 1273], the pIC50 is above 6.00 in assay [1]; above 7.00 in assay [2]; above 7.30 in assay [3]; 6.30 to 7.30 in assay [4]; 6.00 to 7.00 in assay [5]; above 7.30 in assay [6]. The “MTAP intact/deleted ratio” value in assay [2] was “A (an IC50 ratio greater than or equal to 10 fold)”.
As to `Cc1cc(NC(=O)C(=O)N2C[C@@H](C)[C@H](CC(C)C)C[C@@H]2c2ccc3scnc3c2)cnc1N` (single isomer, unassigned) [Compound 1284], the pIC50 in assay [1] is below 5.00; in assay [2], below 6.00; in assay [3], below 6.30; in assay [4], below 6.30; in assay [5] it was below 6.00; in assay [6] it was below 6.30.
As for `CCc1cc(NC(=O)C(=O)N2C[C@@H](C)[C@@H](OC)C[C@@H]2c2ccc3scnc3c2)cnc1N` (single isomer, unassigned) [Compound 1286], the pIC50 in assay [1] is above 6.00; in assay [2], above 7.00; in assay [3] it was above 7.30; in assay [4], 6.30 to 7.30; in assay [5] it was 6.00 to 7.00; in assay [6] it was above 7.30. Further, the “MTAP intact/deleted ratio” value in assay [2] was “A (an IC50 ratio greater than or equal to 10 fold)”.
For the compound `CCc1cc(NC(=O)C(=O)N2C[C@@H](C)CC[C@@H]2c2ccc(N3CCN(C)[C@@H](C)C3)nc2)cnc1N` (single isomer, unassigned) [Compound 1289], the pIC50 was above 6.00 in assay [1]; above 7.00 in assay [2]; above 7.30 in assay [3]; 6.30 to 7.30 in assay [4]; 6.00 to 7.00 in assay [5]; above 7.30 in assay [6]. Besides, in assay [2], the “MTAP intact/deleted ratio” value was “A (an IC50 ratio greater than or equal to 10 fold)”.
On to `Cc1cc(NC(=O)C(=O)N2C[C@H](C)CC[C@H]2c2cccc(C3CCN(C)CC3)c2)cnc1N` (single isomer, unassigned) [Compound 1291], for which the pIC50 in assay [1] is below 5.00; in assay [2], 6.00 to 7.00; in assay [3] it was below 6.30; in assay [4] it was below 6.30; in assay [5] it was below 6.00; in assay [6], below 6.30.
For the compound `Cc1cc(NC(=O)C(=O)N2C[C@@H](C)[C@@H](OC(C)C)C[C@@H]2c2ccccc2)cnc1N` (single isomer, unassigned) [Compound 1302], the pIC50 is below 5.00 in assay [1]; below 6.00 in assay [2]; below 6.30 in assay [3]; below 6.30 in assay [4]; below 6.00 in assay [5]; below 6.30 in assay [6].
In the case of `C[C@@H]1CN(C(=O)C(=O)Nc2cnc(N)c(C3CC3)c2)[C@@H](c2ccc3scnc3c2)CC1(F)F` (single isomer, unassigned) [Compound 1307], the pIC50 in assay [1] is above 6.00; in assay [2], above 7.00; in assay [3], 6.30 to 7.30; in assay [4], below 6.30; in assay [5], below 6.00; in assay [6], 6.30 to 7.30. The “MTAP intact/deleted ratio” value in assay [2] is “A (an IC50 ratio greater than or equal to 10 fold)”.
Take `CCc1cc(NC(=O)C(=O)N2C[C@@H](C)CC[C@@H]2c2ccc3sc([C@@H]4CCN(C)C4)nc3c2)cnc1N` (single isomer, unassigned) [Compound 1308]: the pIC50 in assay [1] was above 6.00; in assay [2], above 7.00; in assay [3], above 7.30; in assay [4], 6.30 to 7.30; in assay [5] it was above 7.00; in assay [6], above 7.30. Moreover, in assay [2], the “MTAP intact/deleted ratio” value is on record as “A (an IC50 ratio greater than or equal to 10 fold)”.
Take `Cc1cc(NC(=O)C(=O)N2C[C@@H](C)CC[C@@H]2c2ccc3sc(-c4cccnc4)nc3c2)cnc1N` (single isomer, unassigned) [Compound 1310]: the pIC50 in assay [1] is above 6.00; in assay [2], above 7.00; in assay [3], above 7.30; in assay [4] it was 6.30 to 7.30; in assay [5], above 7.00; in assay [6] it was above 7.30. The “MTAP intact/deleted ratio” value in assay [2] is listed as “A (an IC50 ratio greater than or equal to 10 fold)”.
As to `CCc1cc(NC(=O)C(=O)N2C[C@@H](C)CC[C@@H]2c2ccc3sc([C@H]4CCN(C)C4)nc3c2)cnc1N` (single isomer, unassigned) [Compound 1311], the pIC50 in assay [1] was above 6.00; in assay [2], above 7.00; in assay [3], above 7.30; in assay [4] it was above 7.30; in assay [5] it was above 7.00; in assay [6], above 7.30. Further, in assay [2], the “MTAP intact/deleted ratio” value was “A (an IC50 ratio greater than or equal to 10 fold)”.
For `C[C@H]1CC[C@H](c2ccc3sc(C4CCN(C)CC4)nc3c2)N(C(=O)C(=O)Nc2cnc(N)c([C@H]3CCOC3)c2)C1` (single isomer, unassigned) [Compound 1312], the pIC50 in assay [1] was above 6.00; in assay [2], above 7.00; in assay [3], above 7.30; in assay [4], above 7.30; in assay [5], below 6.00; in assay [6], above 7.30.
